According to patent publication US20140038953A1, “COMPOSITIONS AND METHODS FOR CARDIOVASCULAR DISEASE” (THE GENERAL HOSPITAL CORPORATION, priority 2011, published 2014):
“Also recorded” adds a separate entry of the source.

Columns and labels:
Format in all cases: in vivo
C57BL/6 mice = assay: Blood biochemical analysis in WT mice fed a high fat diet
Protocol: Female mice deficient for the low density lipoprotein receptor (LDLR^−/−) on a C57BL/6 background with appropriate control mice mice (eight weeks of age) were obtained from Jackson Laboratories (Bar Harbor, Me.). Animals were fed a western style diet formulated to match Paigen's Atherogenic Rodent Diet (42% fat, 0.15% cholesterol, 19.5% casein; Research Diets Inc., New Brunswick, N.J.).
[…], white blood count, hematocrit, hemoglobin, and platelets were analyzed using a HemaTrue™ Hematology Analyzer (Heska AG, Switzerland). Urea nitrogen, glucose, alkaline phosphatase, total protein, alanine transaminase and creatinine were determined using a Spotchem EZ SP-4430 POCT analyzer (Arkray, Inc., Kyoto, Japan). HDL and LDL levels were determined using a fluorescence quantification kit (K613-100, Biovision, Mountain View, Calif.)

LDLR−/− mice = assay: Atheroma burden / lesion formation in LDLR−/− mice (Oil Red O, histology); conditions: for lipid accumulation / atheroma burden (Oil Red O): high fat diet 20 weeks, 2.5 mg/kg ip daily, vs vehicle, 2.5 mg/kg
Protocol: Aortas were either immediately embedded and cryopreserved using optimal cutting-temperature medium (Sakura Tissue-Tek, Zoeterwoude, The Netherlands) or fixed in paraformaldehyde and embedded in parafin. The presence of calcification was determined by staining tissue sections with Alizarin red or Von Kossa. Lipid accumulation in tissue sections was visualized by staining with Oil Red O. Liver sections were prepared from paraformaldehyde-fixed tissue and stained with hematoxylin and eosin.
To confirm that BMP signaling has a direct impact on atherogenesis, the aortae explanted from the BMP inhibitor positive control compound-treated and vehicle-treated LDLr−/− mice after 20 weeks were subjected to Oil Red 0 staining to mark lipid-rich plaques.
LDLr−/− mice were started on a hypercholesterolemic diet at 8 weeks, and treated with either vehicle (saline) or a BMP inhibitor positive control compound (compound 13, 2.5 mg/kg/d intraperitoneally) for an additional 8 weeks. Aortae were harvested and fixed, and then stained with antibodies sensitive for the BMP effector molecule, phosphorylated-SMAD1/5/8, and counterstained with DAPI nuclear stain. Within 6-8 weeks of being subjected to a high fat diet, LDR−/− mice developed fatty lesions in the intima of the aortic root, based on traditional histochemical staining techniques (data not shown). […] Thus, the cellular components of lipid rich plaques, predominantly macrophage-derived foam cells, had evidence of intense activation of the BMP signaling pathway. In contrast, the lipid plaques found in the BMP inhibitor positive control compound-treated mice, which were diminished in size and extent as compared to those in vehicle-treated mice, had also diminished intensity of staining for the phosphorylated form of SMAD1/5/8 (data not shown). Thus, hypercholesterolemic mice had evidence of intense BMP signaling pathway activation in the cellular components of atheromatous lesions, and treatment of hypercholesterolemic mice with the BMP inhibitor positive control compound diminished the activation of the BMP signaling pathway in these lesions.
(§1) LDLR−/− deficient mice were intiated on an atherogenic diet (Paigen) at 8 weeks of age, and administered either vehicle, a BMP inhibitor positive control compound (compound 13, 2.5 mg/kg IP daily) or ALK3-Fc (2 mg/kg IP every other day). Each treatment group consisted of a total of 10 mice. After 4 weeks of atherogenic diet and drug or vehicle treatment, the animals were sacrificed. The frontal plane sections of the aortic arch were dissected out and stained for macrophage marker (MAC2) and counterstained with DAPI.
as §1, with “initiated” for “intiated”, “([…]” for “(2”, “day).” for “day). Each treatment group consisted of a total of 10 mice.”, “6” for “4”, “and” for “and drug or vehicle”, “phosphorylated SMAD1/5/8” for “macrophage marker (MAC2)”

Wnt3a gene expression = assay: Aortic Wnt3a gene expression in MGP−/− mice; conditions: 2.5 mg/kg/day IP day 1-28
Protocol: Total cellular RNA from either snap frozen tissues or cultured cells was extracted by the Phenol/guanidine method as described. (Chomczynski, P. & Sacchi, N. Single-step method of RNA isolation by acid guanidinium thiocyanate-phenol-chloroform extraction. Anal Biochem 162, 156-159 (1987).) cDNA was synthesized using Moloney murine leukemia virus reverse transcriptase (Promega, Madison, Wis., USA).
MGP−/− mice were treated with intraperitoneal (IP) injections of either vehicle or compound 13 at 2.5 mg/kg/day from day 1-28. At day 28, aortas were harvested for both histology and RNA isolation. […] To further quantify aortic calcium, a fluorescent bisphosphonate agent that specifically binds to hydroxyapatite (OsteoSense 680 nm, Perkin Elmer) was used. (Aikawa E, et al. Multimodality molecular imaging identifies proteolytic and osteogenic activities in early aortic valve disease. Circulation. 2007; 115(3):377-386 and Zaheer A, et al. In vivo near-infrared fluorescence imaging of osteoblastic activity. Nature biotechnology. 2001; 19(12):1148-1154.) MGP−/− mice at 27 days of age treated with vehicle or compound 13 received OsteoSense via tail vein, and 24 h later, aortas were harvested for imaging. […]

[1] = female C57BL/6 WT mice, high fat diet 30 weeks, 2.5 mg/kg ip daily, mean ± SEM

## c1ccc2c(-c3cnn4cc(-c5ccc(N6CCNCC6)cc5)cnc34)ccnc2c1 [Compound 13, 4-[6-(4-piperazin-1-ylphenyl)pyrazolo[1,5-a]pyrimidin-3-yl]quinoline]
C57BL/6 mice; [1]
  Alanine transaminase: 159 ± 19 IU/L
  Alkaline phosphatase: 109 ± 8 IU/L
  Blood urea nitrogen: 25 ± 1 mg/dL
  Cholesterol: 183 ± 6 mg/dL
  Creatinine: 0.5 ± 0.0 mg/dL
  Glucose: 311 ± 12 mg/dL
  Hemoglobin: 13.5 ± 1.0 g/dL
  Total protein: 4.7 ± 0.2 g/dL
  Triglycerides: 82 ± 21 mg/dL
C57BL/6 mice; wild-type animals on a HFD, in words
  total serum cholesterol vs vehicle: reduced total serum cholesterol
LDLR−/− mice; LDLR−/− mice, atherogenic diet and treatment 4 weeks, compound 13 2.5 mg/kg IP daily, ALK3-Fc 2 mg/kg IP every other day
  lesion formation in aortic arch: decreased lesion formation overall
LDLR−/− mice; LDLR−/− mice, atherogenic diet and treatment 6 weeks
  lesion formation / atherogenesis: decreased lesion formation overall
LDLR−/− mice; LDLR−/− mice
  lipid accumulation / atheroma burden (Oil Red O): Atheroma burden was reduced; also recorded: marked reduction
LDLR−/− mice; LDLR−/− mice, listed as BMP inhibitor positive control compound
  lipid accumulation / atheroma burden (Oil Red O): consistently more severe in vehicle-treated
LDLR−/− mice; LDLr−/− mice, hypercholesterolemic diet and treatment 8 weeks, 2.5 mg/kg/d ip
  intimal atheroma formation: reduced intimal atheroma formation
Wnt3a gene expression
  reduction in aortic Wnt3a gene expression: > 5 fold
